The numbers were not newly measured in article PMC6428196 (Psychopharmacology, 2018), which cites them from elsewhere.

One series concerns baboons. The following applies: ref Holtyn et al. 2017.
The conditions of series [1]: human, in vivo, sc.
The conditions of series [2]: in vivo.

Structures are written as SMILES.

Regarding `O=C1CC[C@@]2(O)[C@H]3Cc4ccc(O)c5c4[C@@]2(CCN3CC2CC2)[C@H]1O5` [naltrexone], the Drinking result with baboons is on record as “reduced drinking to a degree comparable to our liraglutide effect”.
`CCCCCCCCCCCCCCCC(=O)N[C@@H](CCC(=O)NCCCC[C@H](NC(=O)[C@H](C)NC(=O)[C@H](C)NC(=O)[C@H](CCC(N)=O)NC(=O)CNC(=O)[C@H](CCC(=O)O)NC(=O)[C@H](CC(C)C)NC(=O)[C@H](Cc1ccc(O)cc1)NC(=O)[C@H](CO)NC(=O)[C@H](CO)NC(=O)[C@@H](NC(=O)[C@H](CC(=O)O)NC(=O)[C@H](CO)NC(=O)[C@@H](NC(=O)[C@H](Cc1ccccc1)NC(=O)[C@@H](NC(=O)CNC(=O)[C@H](CCC(=O)O)NC(=O)[C@H](C)NC(=O)[C@@H](N)Cc1cnc[nH]1)[C@@H](C)O)[C@@H](C)O)C(C)C)C(=O)N[C@@H](CCC(=O)O)C(=O)N[C@@H](Cc1ccccc1)C(=O)N[C@H](C(=O)N[C@@H](C)C(=O)N[C@@H](Cc1c[nH]c2ccccc12)C(=O)N[C@@H](CC(C)C)C(=O)N[C@H](C(=O)N[C@@H](CCCNC(=N)N)C(=O)NCC(=O)N[C@@H](CCCNC(=N)N)C(=O)NCC(=O)O)C(C)C)[C@@H](C)CC)C(=O)O` [liraglutide]: the Bioavailability in series [1] is 55%. In addition, the “Brain penetration after systemic administration” value in series [2] is “penetrate the brain”.
